Reference: publication PMC5490826 (Viruses, 2017)

Tests used:
Format in all cases: binding
NS5B Δ21 1b Con1 [1] = biological target: T1, NS5B Δ21 1b Con1 (Hepatitis C virus (isolate Con1), UniProt Q9WMX2); test: differential scanning fluorimetry (SYPRO Orange); details: 2 µM protein, 10 µM inhibitor, 50 mM Tris-HCl pH 7.5, up to 2% DMSO; allosteric, palm site; unreliable (text b33 differs from table; not confirmed by SPR)
NS5B Δ21 1b BK = NS5B Δ21 1b BK (Hepatitis C virus (isolate BK), UniProt P26663); test: SPR (Biacore), kinetic two-state model, immobilized enzyme
NS5B Δ21 3a = NS5B Δ21 3a (Hepatitis C virus (isolate NZL1), UniProt Q81258); details: read-out: Lomibuvir / 3a (±SD); pH 7.4, 25 °C, 10 mM MgCl2, 130 mM NaCl, 3% DMSO; allosteric, thumb II site
NS5B Δ21 1b Con1 [2] = biological target: T1, NS5B Δ21 1b Con1; test: SPR (Biacore), kinetic two-state model, immobilized enzyme

Chain of NS5B Δ21 3a (Q81258 2431-3000, stated change not applied): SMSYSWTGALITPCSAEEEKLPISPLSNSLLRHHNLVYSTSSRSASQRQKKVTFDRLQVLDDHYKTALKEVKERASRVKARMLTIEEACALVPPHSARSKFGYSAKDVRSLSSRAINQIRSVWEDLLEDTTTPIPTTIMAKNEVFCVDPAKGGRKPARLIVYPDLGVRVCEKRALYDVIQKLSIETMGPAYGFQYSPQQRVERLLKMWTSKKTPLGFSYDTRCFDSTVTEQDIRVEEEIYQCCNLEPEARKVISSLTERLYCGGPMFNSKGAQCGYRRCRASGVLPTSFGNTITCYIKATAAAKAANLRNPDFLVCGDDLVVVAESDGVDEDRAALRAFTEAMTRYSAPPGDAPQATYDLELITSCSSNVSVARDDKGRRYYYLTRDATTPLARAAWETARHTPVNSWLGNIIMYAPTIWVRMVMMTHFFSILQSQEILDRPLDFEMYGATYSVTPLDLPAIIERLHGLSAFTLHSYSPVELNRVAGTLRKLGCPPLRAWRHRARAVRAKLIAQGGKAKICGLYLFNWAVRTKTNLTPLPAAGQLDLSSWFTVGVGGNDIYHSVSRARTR
Chain of NS5B Δ21 1b BK (P26663 2420-2989, stated change not applied): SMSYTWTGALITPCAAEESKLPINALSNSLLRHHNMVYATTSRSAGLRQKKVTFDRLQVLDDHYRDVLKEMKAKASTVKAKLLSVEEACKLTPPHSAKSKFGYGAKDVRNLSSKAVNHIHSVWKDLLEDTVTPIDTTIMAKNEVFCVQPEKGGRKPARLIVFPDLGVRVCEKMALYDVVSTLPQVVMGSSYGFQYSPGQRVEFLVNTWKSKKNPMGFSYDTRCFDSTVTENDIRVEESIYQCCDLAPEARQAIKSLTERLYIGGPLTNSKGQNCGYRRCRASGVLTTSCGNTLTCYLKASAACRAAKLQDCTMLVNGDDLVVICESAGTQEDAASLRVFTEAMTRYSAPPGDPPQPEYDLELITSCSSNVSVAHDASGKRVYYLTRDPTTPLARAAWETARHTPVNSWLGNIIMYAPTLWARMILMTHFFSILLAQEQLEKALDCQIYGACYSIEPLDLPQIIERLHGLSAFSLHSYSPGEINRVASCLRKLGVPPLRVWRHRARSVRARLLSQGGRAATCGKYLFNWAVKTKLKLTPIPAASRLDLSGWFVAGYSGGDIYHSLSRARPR

## CNC(=O)c1c(-c2ccc(F)cc2)oc2cc(N(CCO)S(C)(=O)=O)c(C3CC3)cc12 [nesbuvir]
NS5B Δ21 1b Con1 [1]
  1b Con1 / ΔTm: 5 °C

## CC(C)(C)C#Cc1cc(N(C(=O)[C@H]2CC[C@H](C)CC2)[C@H]2CC[C@H](O)CC2)c(C(=O)O)s1 [lomibuvir]
NS5B Δ21 1b BK
  Kd: 20 ± 0.4 nM
NS5B Δ21 3a
  Kd: > 2000 nM
NS5B Δ21 1b Con1 [2]
  Kd: 19 ± 7 nM
